Test results as given in patent US10774064B2 (Cadent Therapeutics, Inc., priority 2016, dated 2020).

These compounds were tested against T1, small-conductance Ca2+-activated K+ channels (SK channels, subtype 2) (Homo sapiens, UniProt Q9H2S1) (assay: whole-cell patch-clamp of ionic current through SK2 channels in HEK293 cells (SC100)). Settings: concentration that increases the basal current by 100%; HEK293 cells expressing SK2 channels.
T1 construct: expressed in transfected cells; host or cells: HEK293
Assay type: cell-based
Procedure, shortened: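 SC100, the concentration doubling basal current (a 100% increase), was taken from SK2 currents recorded by whole-cell patch-clamp in SK2-expressing HEK293 cells.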

Row | SC100 | Structure (SMILES)
1 | ++ (++ means 200 nM-1000 nM) | Cc1cc(C)n(-c2nc(NC3CCC(F)(F)CC3)cc(N3CCOC(CO)C3)n2)n1 (racemic) [Compound 110, (4-(6-((4,4-difluorocyclohexyl)amino)-2-(3,5-dimethyl-1H-pyrazol-1-yl)pyrimidin-4-yl)morpholin-2-yl)methanol]
2 | ++ (++ means 200 nM-1000 nM) | Cc1csc(-c2nc(NC3CCC(F)(F)CC3)cc(N3CCOCC3)n2)n1 [Compound 320, N-(4,4-difluorocyclohexyl)-2-(4-methylthiazol-2-yl)-6-morpholinopyrimidin-4-amine]
3 | + (+ means >1 uM) | Cc1cc(C)n(-c2nc(NC3CCC(F)(F)CC3)cc(NC(C)c3nccs3)n2)n1 (centres unmarked) [Compound 124, N4-(4,4-difluorocyclohexyl)-2-(3,5-dimethyl-1H-pyrazol-1-yl)-N6-(1-(thiazol-2-yl)ethyl)pyrimidine-4,6-diamine]
4 | + (+ means >1 uM) | Cc1cc(NC2CCC(F)(F)CC2)nc(-n2ccc(CF)n2)n1 [Compound 223]

Second part, the compound before the results:

Row | Structure (SMILES) | SC100
5 | Cc1cc(C)n(-c2nc(NC3CCC(F)(F)CC3)cc(N3CCOCC3)n2)n1 [Compound 187, N-(4,4-difluorocyclohexyl)-2-(3,5-dimethyl-1H-pyrazol-1-yl)-6-morpholinopyrimidin-4-amine] | ++ (++ means 200 nM-1000 nM)
6 | Cc1cc(NC2CCC(F)(F)CC2)nc(-c2nc(C)cs2)n1 [Compound 231, N-(4,4-difluorocyclohexyl)-6-methyl-2-(4-methylthiazol-2-yl)pyrimidin-4-amine] | ++ (++ means 200 nM-1000 nM)
7 | Cc1cc(C)n(-c2cc(NC(C(N)=O)C(C)C)cc(NC3CCC(F)(F)CC3)n2)n1 (centres unmarked) [Compound 239, 2-((2-((4,4-difluorocyclohexyl)amino)-6-(3,5-dimethyl-1H-pyrazol-1-yl)pyridin-4-yl)amino)-3-methylbutanamide] | ++ (++ means 200 nM-1000 nM)
8 | CC(=O)N1CCN(c2cc(NC3CCC(F)(F)CC3)nc(-n3nc(C)cc3C)c2)CC1 [Compound 134, 1-(4-(2-((4,4-difluorocyclohexyl)amino)-6-(3,5-dimethyl-1H-pyrazol-1-yl)pyridin-4-yl)piperazin-1-yl)ethan-1-one] | ++ (++ means 200 nM-1000 nM)

Same assay, conditions: whole-cell patch-clamp, HEK293 cells expressing SK2 channels; concentration that increases the basal current by 100%

Row | SC100 (μM) | Structure (SMILES)
9 | + (+ means >1 uM) | Cc1cccc(-c2nccc(NC3CCC(F)(F)CC3)n2)n1 [IN11130-030-P1, N-(4,4-difluorocyclohexyl)-2-(6-methylpyridin-2-yl)pyrimidin-4-amine]
10 | ++ (++ means 200 nM-1000 nM) | Cc1nsc(-c2nc(NC3CCC(F)(F)CC3)cc(N3CCN4C(=O)OCC4C3)n2)n1 (centres unmarked) [NSSy6178]
11 | + (+ means >1 uM) | COC(=O)N1CC=C(c2cc(NC3CCC(F)(F)CC3)nc(-n3ccc(C)n3)c2)CC1 [IN11130-077-P1, methyl 2′-((4,4-difluorocyclohexyl)amino)-6′-(3-methyl-1H-pyrazol-1-yl)-3,6-dihydro-[4,4′-bipyridine]-1(2H)-carboxylate]
12 | +++ (+++ means <200 nM) | COC(=O)N1CCC(c2cc(-n3ccc(C)n3)nc(NC3CCC(F)(F)CC3)n2)CC1 [NSSy6981, methyl 4-(2-((4,4-difluorocyclohexyl)amino)-6-(3-methyl-1H-pyrazol-1-yl)pyrimidin-4-yl)piperidine-1-carboxylate]
13 | + (+ means >1 uM) | CC(O)c1cc(NC2CCC(F)(F)CC2)nc(-n2ccc(C3CC3)n2)n1 (centres unmarked) [NSSy6881, 1-(2-(3-cyclopropyl-1H-pyrazol-1-yl)-6-((4,4-difluorocyclohexyl)amino)pyrimidin-4-yl) ethan-1-ol]
14 | ++ (++ means 200 nM-1000 nM) | FC1(F)CCC(Nc2cc(N3CCOCC3)nc(-n3ccc(C(F)(F)F)n3)n2)CC1 [IN11079-009-P1, N-(4,4-difluorocyclohexyl)-6-morpholino-2-(3-(trifluoromethyl)-1H-pyrazol-1-yl)pyrimidin-4-amine]
15 | + (+ means >1 uM) | Cc1cc(NC2CCC(F)(F)CC2)nc(-n2ccc(C3(O)CC3)n2)n1 [IN11251-011-P1, 1-(1-(4-((4,4-difluorocyclohexyl)amino)-6-methylpyrimidin-2-yl)-1H-pyrazol-3-yl)cyclopropan-1-ol]
16 | + (+ means >1 uM) | CC(O)c1cc(NC2CCC(F)(F)CC2)nc(-n2ccc(C(F)(F)F)n2)n1 (centres unmarked) [IN11053-062-P1, 1-(6-((4,4-difluorocyclohexyl)amino)-2-(3-(trifluoromethyl)-1H-pyrazol-1-yl)pyrimidin-4-yl)ethan-1-ol]
17 | + (+ means >1 uM) | Cc1cc(C)n(-c2nc(NC3CCC(F)(F)CC3)cc(C(O)c3ccccc3)n2)n1 (centres unmarked) [IN10987-030-P1]
18 | + (+ means >1 uM) | COc1cc(NC2CCCC2)nc(-c2nc(C)cs2)n1 [IN11055-066-P1]
19 | + (+ means >1 uM) | Cc1ccn(-c2nc(NC3CC=CCC3)cc(N3CCOCC3)n2)n1 (centres unmarked) [NSSy5663]
20 | ++ (++ means 200 nM-1000 nM) | Cc1ccn(-c2cc(C(O)Cc3cnn(C)n3)cc(NC3CCC(F)(F)CC3)n2)n1 (centres unmarked) [NSSy7064]
21 | + (+ means >1 uM) | COC(=O)N1CC(Oc2cc(NC3CCC(F)(F)CC3)cc(-n3ccc(C)n3)c2)C1 [NSSy5934, methyl 3-(3-((4,4-difluorocyclohexyl)amino)-5-(3-methyl-1H-pyrazol-1-yl)phenoxy)azetidine-1-carboxylate]
22 | +++ (+++ means <200 nM) | COC(=O)N1CCC(c2cc(NC3CCC(F)(F)CC3)nc(-n3ccc(C)n3)c2)CC1 [NSSy6885]
23 | + (+ means >1 uM) | COc1cc(NC2CCCCC2OC)nc(-c2nc(C)cs2)n1 (centres unmarked) [IN11140-090-P1, 6-methoxy-N-(2-methoxycyclohexyl)-2-(4-methylthiazol-2-yl)pyrimidin-4-amine]
24 | + (+ means >1 uM) | COc1cc(NC2CC(F)(F)C2)nc(-c2nc(C)cs2)n1 [IN11133-014-P1]
25 | ++ (++ means 200 nM-1000 nM) | Cc1csc(-c2cc(CN)cc(NC3CCC(F)(F)CC3)n2)n1 [IN11133-049-P1, 4-(aminomethyl)-N-(4,4-difluorocyclohexyl)-6-(4-methylthiazol-2-yl)pyridin-2-amine]

More lines, now with the values behind:

Row | Structure (SMILES) | SC100 (μM)
26 | CC(F)c1ccn(-c2nc(NC3CCC(F)(F)CC3)cc(N3CCOCC3)n2)n1 (centres unmarked) [IN11243-041-P1] | +++ (+++ means <200 nM)
27 | COCC1COCCN1c1cc(NC2CCC(F)(F)CC2)nc(-c2nc(C)cs2)n1 (centres unmarked) [IN10881-099-P1] | + (+ means >1 uM)
28 | OC(c1cc(NC2CCC(F)(F)CC2)nc(-n2cc(F)cn2)c1)c1ncco1 (centres unmarked) [NSSy6435] | + (+ means >1 uM)
29 | Cc1csc(-c2nc(N3CCOCC3)cc(N3CC4CCCCC43)n2)n1 (centres unmarked) [NSSy6348, 4-(6-(7-azabicyclo[4.2.0]octan-7-yl)-2-(4-methylthiazol-2-yl)pyrimidin-4-yl)morpholine] | + (+ means >1 uM)
30 | Cc1ccn(-c2cc(OCCN(C)C)nc(NC3CCC(F)(F)CC3)n2)n1 [NSSy6686] | ++ (++ means 200 nM-1000 nM)
31 | Cc1csc(-c2nc(NC3CC=CCC3)cc(N3CCOCC3)n2)n1 (centres unmarked) [NSSy5703, N-(cyclohex-3-en-1-yl)-2-(4-methylthiazol-2-yl)-6-morpholinopyrimidin-4-amine] | + (+ means >1 uM)
32 | Cc1ccn(-c2cc3c(c(N4CCOCC4)n2)CCN3)n1 [IN11130-005-P1, 4-(6-(3-methyl-1H-pyrazol-1-yl)-2,3-dihydro-1H-pyrrolo[3,2-c]pyridin-4-yl)morpholine] | + (+ means >1 uM)
33 | Cc1csc(-c2cc(S(C)(=O)=O)cc(NC3CCC(F)(F)CC3)n2)n1 [IN11147-036-P1, N-(4,4-difluorocyclohexyl)-4-(methylsulfonyl)-6-(4-methylthiazol-2-yl)pyridin-2-amine] | +++ (+++ means <200 nM)
34 | Cc1ccn(-c2nc(NC3CCC(F)(F)CC3)cc([S+](C)[O-])n2)n1 (centres unmarked) [IN11059-069-P1] | ++ (++ means 200 nM-1000 nM)
35 | CC1(O)CC(Oc2cc(-n3ccc(F)n3)nc(NC3CCC(F)(F)CC3)n2)C1 (centres unmarked) [NSSy6464, 3-((2-((4,4-difluorocyclohexyl)amino)-6-(3-fluoro-1H-pyrazol-1-yl)pyrimidin-4-yl)oxy)-1-methylcyclobutan-1-ol] | + (+ means >1 uM)
36 | Cc1ccn(-c2cc(N3CCOCC3)nc(NC3CCC(F)(F)CC3)n2)n1 [NSSy6499] | + (+ means >1 uM)
37 | Cc1csc(-c2cc(N3CCOCC3)nc(NC3CCC(F)(F)CC3)n2)n1 [NSSy6391, N-(4,4-difluorocyclohexyl)-4-(4-methylthiazol-2-yl)-6-morpholinopyrimidin-2-amine] | + (+ means >1 uM)
38 | Cc1csc(-c2nc(NC3CCC(F)(F)CC3)cc(C(C)N3CCOCC3)n2)n1 (centres unmarked) [IN10973-028-P1, N-(4,4-difluorocyclohexyl)-2-(4-methylthiazol-2-yl)-6-(1-morpholinoethyl)pyrimidin-4-amine] | + (+ means >1 uM)
39 | FCc1ccn(-c2nc(NC3CCC(F)(F)CC3)cc(OC3CC(F)C3)n2)n1 (centres unmarked) [NSSy5618, N-(4,4-difluorocyclohexyl)-6-(3-fluorocyclobutoxy)-2-(3-(fluoromethyl)-1H-pyrazol-1-yl)pyrimidin-4-amine] | + (+ means >1 uM)
40 | Cc1cc(NC2CCC(F)(F)CC2)nc(-n2ccc(-c3ccccc3)n2)n1 [NSSy7028] | + (+ means >1 uM)
41 | Cc1ccn(-c2cc(NC3CCC(F)(F)CC3)nc(-n3ccc(C)n3)c2)n1 [IN11054-030-P1, N-(4,4-difluorocyclohexyl)-4,6-bis(3-methyl-1H-pyrazol-1-yl)pyridin-2-amine] | + (+ means >1 uM)
42 | Cc1ccn(-c2nc(NC3CCC(F)(F)CC3)cc(OCc3cnco3)n2)n1 [IN11054-012-P1] | ++ (++ means 200 nM-1000 nM)
43 | Cc1cc(C)n(-c2cc3c(ncn3C3COC3)c(NC3CCC(F)(F)CC3)n2)n1 [NSSy5808, N-(4,4-difluorocyclohexyl)-6-(3,5-dimethyl-1H-pyrazol-1-yl)-1-(oxetan-3-yl)-1H-imidazo[4,5-c]pyridin-4-amine] | ++ (++ means 200 nM-1000 nM)
44 | Cc1ccn(-c2nc(NC3CCC(F)(F)CC3)cc(N3CCN(C)C(=O)C3)n2)n1 [IN11177-049-P1] | ++ (++ means 200 nM-1000 nM)
